“And” between values parts separate entries of the source, which are not always exact repeats. Identical values can stand only once.
What was measured:
[1] = tested on: HTLV-1 pX (proviral load) in live cells of PBMCs from HAM cases; assay: PMA-HTLV-1 viability PCR, PBMCs from HAM cases; assay type: cell-based; design: key to ΔCτ Drug Mean: ΔCτ = CτD−P+ − CτD+P+ (Cτ shift by drug, PMA-treated); details: N=16
Description: PBMCs from 16 HAM cases frozen and preserved in liquid nitrogen were used.
A PMA stock solution (20 mM, frozen and preserved at −20° C. under light protection) was added to cell samples to yield a final concentration of 50 μM, and the tubes were incubated in a dark place (wrapped in aluminum foil) at room temperature for 5 minutes (each tube was sometimes flicked by fingers for mixing).
A photo-crosslinker and a halogen lamp were always used to perform photo-crosslinking using a household 100-V AC power source. The cell specimen volume was adjusted by appropriately adding PBS to 200 μL and irradiation was carried out for 5 minutes at a position 20 cm away from the halogen lamp in the dark. […] Each sample tube was sometimes flicked by fingers for mixing
Frozen PBMC specimens were thawed in a water bath at 37° C. and washed twice with PBS at 300×g, and then, the pellet was suspended in 1 mL of PBS and placed on ice. The cell concentration was counted by the trypan blue exclusion method using a hemocytometer.
Approximately 5×10^5 to 1×10^6 cells were collected in two Eppendorf tubes and the solution volume was adjusted to 200 μL by adding PBS if appropriate. One of the tubes was subjected to PMA treatment and photo-crosslinking, and the other tube was not treated in the same manner. DNA was extracted from both tubes using DNeasy Blood & Tissue Kits (QIAGEN).
To the remaining liquid of the cell suspension of each cell specimen, approximately 7.5 mL of cell medium RPMI1640 (supplemented with 10% of fetal calf serum and 1% of penicillin-streptomycn) was added to adjust the total volume to 8.0 mL+α. Each mixture was plated in a volume of approximately 2000 μL on a 6-well polystyrene plate such that 4 wells were used per cell specimen.
After adding the drug, each mixture was gently shaken on a shaker and incubation was started at 37° C. in a 5% CO2 incubator.
At T=6 h, about a half volume of the cell suspension of each well was harvested, collected in an Eppendorf tube, and centrifuged at 3,500 rpm×10 min. The supernatant was discarded, and the pellet was resuspended with 1 mL of PBS. Centrifugation was performed again at 3,500 rpm×10 min, and the supernatant was discarded, followed by washing. PBS was added to yield a volume of 200 μL, and all specimens were subjected to PMA treatment and photo-crosslinking. Subsequently, the specimens were washed with PBS again, and DNA was extracted with DNeasy Blood & Tissue Kits (QIAGEN).
The procedures were performed as in the case of T=6 h described in (1-2-5) above. DNA samples were named, for example, “Sample No-Imatinib600 nM-12 h.”
The DNA concentration was measured by ND-1000 (Thermo Fisher Scientific), and DNA was prepared in an amount (10 ng/μL×triplicate or more) sufficient for real-time PCR to be performed in triplicate. DNA was frozen and preserved at −20° C. until use.
According to the protocol (for the PCR system of 25 μL in total) of TaqMan Universal Master Mix II (#4440044, Thermo Fisher Scientific), 20 μM forward and reverse primers, 8 μM TaqMan probes, 2× Universal Master Mix II, and D2 W were mixed. The mixture was pipetted in a volume of 25 μL into each of triplicate wells of a MicroAmp Fast 96-well Reaction Plate (0.1 mL) (REF 4346907, Applied Biosystems) provided with MicroAmp Optical Adhesive Film (P/N 4311971, Applied Biosystems).
A standard dilution series for standard curve creation was prepared from the following five points for pX: NTC (No Template Control); 2 copies/μL (10 copies at 5 μL); 20 copies/μL (100 copies at 5 μL); 200 copies/μL (1000 copies at 5 μL); and […] (10000 copies at 5 μL).
The thermal cycle program was carried out using the StepOne Plus real-time PCR system (Applied Biosystems) and StepOne software ver. 2.3 with 1 cycle in a holding stage at 50° C.×2 minutes and 95° C.×10 minutes and 45 cycles of amplification at 95° C.×15 seconds and 60° C.×1 minute.
Index of the Cτ extension effect by ABL1 inhibitor treatment: ΔCτDrug=CτD−P+−CτD+P+ [Formula 3]

[2] = tested on: HTLV-1 pX (proviral load) in live cells of PBMCs from AC-derived cases; assay: PMA-HTLV-1 viability PCR, PBMCs from AC-derived cases; assay type: cell-based
Description: PBMCs (1×10^7 cells) from 14 AC-derived cases frozen and preserved in liquid nitrogen were used.
Specimens frozen and preserved in liquid nitrogen were thawed in a water bath at 37° C. and washed twice with approximately 10 mL of PBS at 300×g during centrifugation for 10 minutes, and resuspended in 1 mL of PBS. The cell concentration was counted by the trypan blue exclusion method. Thereafter, each specimen was divided into two groups such that each group includes approximately 100,000 PBMCs. One of the groups was not subjected to PMA treatment, and the other group was subjected to PMA treatment. The sample groups were named “Sample No-Drug-P−” and “Sample No-Drug-P+,” respectively.
A PMA stock solution was added to the sample named “Sample No-Drug-P+” to yield a final concentration of 50 μM in the manner described in Example 2, occasionally shaken under light protection at room temperature for 5 minutes for PMA treatment, and treated with a photo-crosslinker under a halogen lamp for crosslinking during air-cooling for 5 minutes. Genomic DNA was extracted from both samples including the former sample which was not subjected to PMA treatment using DNeazy Blood & Tissue Kits (Cat No 69504, QIAGEN).
RPMI1640 (supplemented with 10% fetal bovine serum, 1% penicillin, and streptomycin) in a volume of 7 mL+α was added to the cell suspension remaining after preparing the two samples in (4-1-2), followed by vortexing. […] After mixing with a shaker for a short period of time, the cells were cultured in a 5% CO2 incubator.
After T=6 h, each specimen was subjected to PMA treatment and crosslinking, and then, genomic DNA was extracted therefrom according to the method described in Example 2.
PMA treatment and DNA extraction were carried out according to the method described in Example 2. Accordingly, 10 samples of genomic DNA from each AC sample to be tested, that is to say, 140 samples from 14 specimens, were prepared.
In this Example, the methods described in Example 2 were used for DNA concentration measurement, working solution preparation, real-time PCR, and the method for calculating PMA-HTLV-1 viability PCR indexes.
All samples were examined at N=14.

[3] = tested on: HTLV-1 proviral load (PVL); assay: Peripheral blood PVL before and after oral imatinib in an anti-HTLV-1 antibody-positive CML patient with HAM; assay type: in vivo, human; details: 2844 copies before drug administration, one patient
NC-derived CD4+ T cells = details: 5 μM, 24-hour treatment, FIG. 2 A/B
[4] = tested on: HAM-derived non-CD4-PBMCs; details: 5 μM, 24-hour treatment, FIG. 2 C/D
NC-derived non-CD4-PBMCs = details: 5 μM, 24-hour treatment, FIG. 2 C/D
[5] = read-out: Cmax concentration; based on package inserts / in vivo dynamics data; concentration examined in terms of Cmax; cited from earlier work

SMILES: Cc1ccc(NC(=O)c2ccc(CN3CCN(C)CC3)cc2)cc1Nc1nccc(-c2cccnc2)n1 [imatinib]
- pX decrease rate in live cells (%) Mean ([1]; Imatinib 600 nM, 6 h): 50.35%
- ΔCτ Drug Mean ([1]; Imatinib 600 nM, 6 h): −1.30
- pX decrease rate in live cells (%) Mean ([1]; Imatinib 600 nM, 12 h): 66.37%
- ΔCτ Drug Mean ([1]; Imatinib 600 nM, 12 h): −1.96
- pX decrease rate in live cells (%) Mean ([1]; Imatinib 5 μM, 6 h): 43.37%
- ΔCτ Drug Mean ([1]; Imatinib 5 μM, 6 h): −0.99
- pX decrease rate in live cells (%) Mean ([1]; Imatinib 5 μM, 12 h): 44.99%
- ΔCτ Drug Mean ([1]; Imatinib 5 μM, 12 h): −1.49
- pX decrease rate in live cells (%) Mean ([2]; Imatinib 600 nM, 6 h, N=14): 23.83%
- ΔCτ Drug Mean ([2]; Imatinib 600 nM, 6 h, N=14): −0.28
- pX decrease rate in live cells (%) Mean ([2]; Imatinib 600 nM, 12 h, N=14): approximately 45%
- ΔCτ Drug Mean ([2]; Imatinib 600 nM, 12 h, N=14): −0.98
- pX decrease rate in live cells (%) Mean ([2]; Imatinib 600 nM, 12 h, N=14, listed as Imatinib): 45.46%
- pX decrease rate in live cells (%) Mean ([2]; Imatinib 5 μM, 6 h, N=14): 51.65%
- ΔCτ Drug Mean ([2]; Imatinib 5 μM, 6 h, N=14): −1.45
- pX decrease rate in live cells (%) Mean ([2]; Imatinib 5 μM, 12 h, N=14): 58.25%
- peripheral blood PVL ([3]; 1 year and 5 months after drug administration): 448 copies/10^4 PBMCs
- peripheral blood PVL ([3]; after 5 months of drug administration, oral 400 then 300 mg/day): 1138 copies

SMILES: Cc1cn(-c2cc(NC(=O)c3ccc(C)c(Nc4nccc(-c5cccnc5)n4)c3)cc(C(F)(F)F)c2)cn1 [nilotinib]
- pX decrease rate in live cells (%) Mean ([1]; Nilotinib 30 nM, 6 h): 69.51%
- ΔCτ Drug Mean ([1]; Nilotinib 30 nM, 6 h): −2.03
- pX decrease rate in live cells (%) Mean ([1]; Nilotinib 30 nM, 12 h): 78.00%
- ΔCτ Drug Mean ([1]; Nilotinib 30 nM, 12 h): −2.63
- pX decrease rate in live cells (%) Mean ([1]; Nilotinib 3 μM, 6 h): 53.82%
- ΔCτ Drug Mean ([1]; Nilotinib 3 μM, 6 h): −0.86
- pX decrease rate in live cells (%) Mean ([1]; Nilotinib 3 μM, 12 h): 36.19%
- ΔCτ Drug Mean ([1]; Nilotinib 3 μM, 12 h): −1.46
- pX decrease rate in live cells (%) Mean ([2]; Nilotinib 30 nM, 6 h, N=14): 53.23%
- ΔCτ Drug Mean ([2]; Nilotinib 30 nM, 6 h, N=14): −1.26
- pX decrease rate in live cells (%) Mean ([2]; Nilotinib 30 nM, 12 h, N=14): ~71% and 71.38%
- ΔCτ Drug Mean ([2]; Nilotinib 30 nM, 12 h, N=14): −1.56
- pX decrease rate in live cells (%) Mean ([2]; Nilotinib 30 nM, 12 h, N=14, listed as Nilotinib): 71.38%
- pX decrease rate in live cells (%) Mean ([2]; Nilotinib 3 μM, 6 h, N=14): 50.50%
- ΔCτ Drug Mean ([2]; Nilotinib 3 μM, 6 h, N=14): −1.05
- pX decrease rate in live cells (%) Mean ([2]; Nilotinib 3 μM, 12 h, N=14): 58.56%
- ΔCτ Drug Mean ([2]; Nilotinib 3 μM, 12 h, N=14): −1.36
- cell death of HAM-derived CD4+ T cells (HAM-derived CD4+ T cells): cause cell death to occur
- cell death of NC-derived CD4+ T cells (NC-derived CD4+ T cells): cell death does not occur
- cell death of non-CD4-PBMCs, HAM [4]: significantly observed
- cell death of non-CD4-PBMCs, NC (NC-derived non-CD4-PBMCs): significantly observed
- Cmax [5]: 3 µM
